Laboratory results reported in patent publication US12383545B1, “Treatment of migraine” (priority 2018, dated 2025).
Where “and” joins values, the source holds several entries; their conditions need not be identical. Identical values can stand only once.

Key:
[1] = system: participants with episodic migraine; experiment: Study A: Patient Global Impression of Change (PGI-C) and satisfaction with study medication; type: in vivo, human; conditions: for PGI-C responders (“much better” or “very much better”), percentage / Satisfaction with study medication (“satisfied” or “extremely satisfied”), percentage: Week 12, mITT; for PGI-C response, OR (95% CI) vs placebo / Satisfaction with study medication, OR (95% CI) vs placebo: week 12
Text: Additional prespecified responder analyses included the Patient Global Impression of Change (PGI-C), defined as “much better” or “very much better” at week 12, and satisfaction with study medication, defined as “satisfied” or “extremely satisfied” at weeks 4, 8, and 12.

[2] = system: ALT or AST; experiment: Example 5: postbaseline hepatic laboratory parameter values of clinical interest; type: in vivo, human; conditions: safety population; for Participants with Concurrent Elevations ALT or AST >=3 * ULN AND Bilirubin Total >=1.5 * ULN, n/N1 / Participants with Concurrent Elevations ALT or AST >=3 * ULN AND Bilirubin Total >=2 * ULN, n/N1 / Participants with Potential Hy's Law ALT or AST >=3 * ULN AND Bilirubin Total >=2 * ULN AND ALP <2 * ULN, n/N1: same day
Experimental: In a multicenter, randomized, double-blind, placebo-controlled, parallel-group study designed to evaluate the efficacy, safety, and tolerability of multiple doses and doses regimens of atogepant for the prevention of migraine. The patients were randomized (2:1:2:1:2:1) to 1 of 6 treatment groups: placebo, atogepant 10 mg QD, atogepant 30 mg QD, atogepant 30 mg BID, atogepant 60 mg QD, and atogepant 60 mg BID.
A total of 834 patients were randomized to double-blind treatment (ITT population), and 825 patients took at least 1 dose of double-blind IP (safety population). […] The primary efficacy variable was the change from baseline in mean monthly migraine/probable migraine headache days across the 12-week treatment period. The secondary efficacy variables were the change from baseline in mean monthly headache days across the 12-week treatment period, proportion of patients with at least a 50% reduction in mean monthly migraine/probable migraine headache days across the 12-week treatment period, and the change from baseline in mean monthly acute medication use days across the 12-week treatment period.

[3] = week 12, range across atogepant groups

Compound: C[C@@H]1[C@H](c2c(F)ccc(F)c2F)C[C@H](NC(=O)c2cnc3c(c2)C[C@@]2(C3)C(=O)Nc3ncccc32)C(=O)N1CC(F)(F)F [atogepant]
- PGI-C responders (“much better” or “very much better”), percentage ([1]; 10 mg): 72.1%
- Satisfaction with study medication (“satisfied” or “extremely satisfied”), percentage ([1]; 10 mg): 77.7%
- PGI-C response, OR (95% CI) vs placebo ([1]; 10 mg): 3.05
- Satisfaction with study medication, OR (95% CI) vs placebo ([1]; 10 mg): 2.77
- PGI-C responders (“much better” or “very much better”), percentage ([1]; 30 mg): 73.2%
- Satisfaction with study medication (“satisfied” or “extremely satisfied”), percentage ([1]; 30 mg): 80.3%
- PGI-C response, OR (95% CI) vs placebo ([1]; 30 mg): 3.33
- Satisfaction with study medication, OR (95% CI) vs placebo ([1]; 30 mg): 3.44
- PGI-C responders (“much better” or “very much better”), percentage ([1]; 60 mg): 76.1%
- Satisfaction with study medication (“satisfied” or “extremely satisfied”), percentage ([1]; 60 mg): 82.6%
- PGI-C response, OR (95% CI) vs placebo ([1]; 60 mg): 3.83
- Satisfaction with study medication, OR (95% CI) vs placebo ([1]; 60 mg): 3.58
- odds of achieving PGI-C response, times that of placebo ([1]; each atogepant group): ≥ 3 times
- odds for being treatment satisfaction responders, times greater than placebo ([1]; week 12, atogepant groups): 2-4 times
- proportion of patients satisfied with treatment [1, 3]: 78%-83%
- proportion of patients who were PGI-C responders [1, 3]: 72%-76% and 70-80%
- Participants with postbaseline ALT or AST (U/L) >=1 * ULN, (%) ([2]; Atogepant 10 mg QD (N = 93)): (18.5) %
- Participants with postbaseline ALT or AST (U/L) >=1 * ULN, n/N1 ([2]; Atogepant 10 mg QD (N = 93)): 17/92
- Participants with postbaseline ALT or AST (U/L) >=1.5 * ULN, (%) ([2]; Atogepant 10 mg QD (N = 93)): (4.3) %
- Participants with postbaseline ALT or AST (U/L) >=1.5 * ULN, n/N1 ([2]; Atogepant 10 mg QD (N = 93)): 4/92
- Participants with postbaseline ALT or AST (U/L) >=2 * ULN, (%) ([2]; Atogepant 10 mg QD (N = 93)): (4.3) %
- Participants with postbaseline ALT or AST (U/L) >=2 * ULN, n/N1 ([2]; Atogepant 10 mg QD (N = 93)): 4/92
- Participants with postbaseline ALT or AST (U/L) >=3 * ULN, (%) ([2]; Atogepant 10 mg QD (N = 93)): (2.2) %
- Participants with postbaseline ALT or AST (U/L) >=3 * ULN, n/N1 ([2]; Atogepant 10 mg QD (N = 93)): 2/92
- Participants with postbaseline ALT or AST (U/L) >=5 * ULN, n/N1 ([2]; Atogepant 10 mg QD (N = 93)): 0
- Participants with postbaseline ALT or AST (U/L) >=10 * ULN, n/N1 ([2]; Atogepant 10 mg QD (N = 93)): 0
- Participants with postbaseline ALT or AST (U/L) >=20 * ULN, n/N1 ([2]; Atogepant 10 mg QD (N = 93)): 0
- Participants with Concurrent Elevations ALT or AST >=3 * ULN AND Bilirubin Total >=1.5 * ULN, n/N1 ([2]; Atogepant 10 mg QD (N = 93)): 0
- Participants with Concurrent Elevations ALT or AST >=3 * ULN AND Bilirubin Total >=2 * ULN, n/N1 ([2]; Atogepant 10 mg QD (N = 93)): 0
- Participants with Potential Hy's Law ALT or AST >=3 * ULN AND Bilirubin Total >=2 * ULN AND ALP <2 * ULN, n/N1 ([2]; Atogepant 10 mg QD (N = 93)): 0
- Participants with postbaseline ALT or AST (U/L) >=1 * ULN, (%) ([2]; Atogepant 30 mg BID (N = 86)): (13.1) %
- Participants with postbaseline ALT or AST (U/L) >=1 * ULN, n/N1 ([2]; Atogepant 30 mg BID (N = 86)): 11/84
- Participants with postbaseline ALT or AST (U/L) >=1.5 * ULN, (%) ([2]; Atogepant 30 mg BID (N = 86)): (2.4) %
- Participants with postbaseline ALT or AST (U/L) >=1.5 * ULN, n/N1 ([2]; Atogepant 30 mg BID (N = 86)): 2/84
- Participants with postbaseline ALT or AST (U/L) >=2 * ULN, (%) ([2]; Atogepant 30 mg BID (N = 86)): (2.4) %
- Participants with postbaseline ALT or AST (U/L) >=2 * ULN, n/N1 ([2]; Atogepant 30 mg BID (N = 86)): 2/84
- Participants with postbaseline ALT or AST (U/L) >=3 * ULN, (%) ([2]; Atogepant 30 mg BID (N = 86)): (1.2) %
- Participants with postbaseline ALT or AST (U/L) >=3 * ULN, n/N1 ([2]; Atogepant 30 mg BID (N = 86)): 1/84
- Participants with postbaseline ALT or AST (U/L) >=5 * ULN, n/N1 ([2]; Atogepant 30 mg BID (N = 86)): 0
- Participants with postbaseline ALT or AST (U/L) >=10 * ULN, n/N1 ([2]; Atogepant 30 mg BID (N = 86)): 0
- Participants with postbaseline ALT or AST (U/L) >=20 * ULN, n/N1 ([2]; Atogepant 30 mg BID (N = 86)): 0
- Participants with Concurrent Elevations ALT or AST >=3 * ULN AND Bilirubin Total >=1.5 * ULN, n/N1 ([2]; Atogepant 30 mg BID (N = 86)): 0
- Participants with Concurrent Elevations ALT or AST >=3 * ULN AND Bilirubin Total >=2 * ULN, n/N1 ([2]; Atogepant 30 mg BID (N = 86)): 0
- Participants with Potential Hy's Law ALT or AST >=3 * ULN AND Bilirubin Total >=2 * ULN AND ALP <2 * ULN, n/N1 ([2]; Atogepant 30 mg BID (N = 86)): 0
- Participants with postbaseline ALT or AST (U/L) >=1 * ULN, (%) ([2]; Atogepant 30 mg QD (N = 183)): (17.8) %
- Participants with postbaseline ALT or AST (U/L) >=1 * ULN, n/N1 ([2]; Atogepant 30 mg QD (N = 183)): 32/180
- Participants with postbaseline ALT or AST (U/L) >=1.5 * ULN, (%) ([2]; Atogepant 30 mg QD (N = 183)): (7.2) %
- Participants with postbaseline ALT or AST (U/L) >=1.5 * ULN, n/N1 ([2]; Atogepant 30 mg QD (N = 183)): 13/180
- Participants with postbaseline ALT or AST (U/L) >=2 * ULN, (%) ([2]; Atogepant 30 mg QD (N = 183)): (3.3) %
- Participants with postbaseline ALT or AST (U/L) >=2 * ULN, n/N1 ([2]; Atogepant 30 mg QD (N = 183)): 6/180
- Participants with postbaseline ALT or AST (U/L) >=3 * ULN, (%) ([2]; Atogepant 30 mg QD (N = 183)): (0.6) %
- Participants with postbaseline ALT or AST (U/L) >=3 * ULN, n/N1 ([2]; Atogepant 30 mg QD (N = 183)): 1/180
- Participants with postbaseline ALT or AST (U/L) >=5 * ULN, n/N1 ([2]; Atogepant 30 mg QD (N = 183)): 0
- Participants with postbaseline ALT or AST (U/L) >=10 * ULN, n/N1 ([2]; Atogepant 30 mg QD (N = 183)): 0
- Participants with postbaseline ALT or AST (U/L) >=20 * ULN, n/N1 ([2]; Atogepant 30 mg QD (N = 183)): 0
- Participants with Concurrent Elevations ALT or AST >=3 * ULN AND Bilirubin Total >=1.5 * ULN, n/N1 ([2]; Atogepant 30 mg QD (N = 183)): 0
- Participants with Concurrent Elevations ALT or AST >=3 * ULN AND Bilirubin Total >=2 * ULN, n/N1 ([2]; Atogepant 30 mg QD (N = 183)): 0
- Participants with Potential Hy's Law ALT or AST >=3 * ULN AND Bilirubin Total >=2 * ULN AND ALP <2 * ULN, n/N1 ([2]; Atogepant 30 mg QD (N = 183)): 0
- Participants with postbaseline ALT or AST (U/L) >=1 * ULN, (%) ([2]; Atogepant 60 mg BID (N = 91)): (10.2) %
- Participants with postbaseline ALT or AST (U/L) >=1 * ULN, n/N1 ([2]; Atogepant 60 mg BID (N = 91)): 9/88
- Participants with postbaseline ALT or AST (U/L) >=1.5 * ULN, (%) ([2]; Atogepant 60 mg BID (N = 91)): (1.1) %
- Participants with postbaseline ALT or AST (U/L) >=1.5 * ULN, n/N1 ([2]; Atogepant 60 mg BID (N = 91)): 1/88
- Participants with postbaseline ALT or AST (U/L) >=2 * ULN, (%) ([2]; Atogepant 60 mg BID (N = 91)): (1.1) %
- Participants with postbaseline ALT or AST (U/L) >=2 * ULN, n/N1 ([2]; Atogepant 60 mg BID (N = 91)): 1/88
- Participants with postbaseline ALT or AST (U/L) >=3 * ULN, (%) ([2]; Atogepant 60 mg BID (N = 91)): (1.1) %
